Experimental data reported in PubChem BioAssay AID328 (DTP/NCI, 2004).
Toxic doses and inconclusive results are not listed. Non-standard residues stand in square brackets, D forms with d. Residues, ends and D or L forms follow the SMILES beside them. ξ: configuration not given here. *: point of attachment. ξF = NC(Cc1ccccc1)C(=O)O; Cbz = O=C(OCc1ccccc1)*; OtBu = CC(C)(C)O*

Tested on: BDF1 mice, P388 leukemia ip, median survival T/C
Experiment: NCI In Vivo Anticancer Drug Screen. Data for tumor model P388 Leukemia (intraperitoneal) in B6D2F1 (BDF1) mice
Conditions: endpoint: median survival time, higher = longer survival
How it was run: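 Antitumour effect was judged in vivo: survival in drug-treated mice, normalised to that of vehicle-dosed controls, gives the reported T/C.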

[1] = dose: 100.0 mg/kg/injection, schedule: Q04DX003 (ip), vehicle: saline
[2] = dose: 400.0 mg/kg/injection, schedule: Q04DX003 (ip), vehicle: saline
[3] = dose: 25.0 mg/kg/injection, schedule: Q01DX009 (ip), vehicle: saline with Tween-80
[4] = dose: 50.0 mg/kg/injection, schedule: Q01DX009 (ip), vehicle: saline with Tween-80
[5] = dose: 100.0 mg/kg/injection, schedule: Q01DX009 (ip), vehicle: saline with Tween-80
[6] = dose: 200.0 mg/kg/injection, schedule: Q01DX009 (ip), vehicle: saline with Tween-80
[7] = dose: 100.0 mg/kg/injection, schedule: Q04DX003 (ip), vehicle: Klucel (hydroxypropylcellulose) (HPC)
[8] = dose: 200.0 mg/kg/injection, schedule: Q04DX003 (ip), vehicle: Klucel (hydroxypropylcellulose) (HPC)
[9] = dose: 400.0 mg/kg/injection, schedule: Q04DX003 (ip), vehicle: Klucel (hydroxypropylcellulose) (HPC)
[10] = dose: 100.0 mg/kg/injection, schedule: Q01DX009 (ip), vehicle: saline
[11] = dose: 200.0 mg/kg/injection, schedule: Q01DX009 (ip), vehicle: saline
[12] = dose: 12.5 mg/kg/injection, schedule: Q04DX003 (ip), vehicle: saline with Tween-80

Clc1ccc2c(c1)-c1ccccc1C1=NCCN12
T/C (dose: 2.5 mg/kg/injection, schedule: Q04DX003 (ip), vehicle: Klucel (hydroxypropylcellulose) (HPC)): 110 % of control
T/C (dose: 4.4 mg/kg/injection, schedule: Q04DX003 (ip), vehicle: Klucel (hydroxypropylcellulose) (HPC)): 100 % of control
T/C (dose: 5.0 mg/kg/injection, schedule: Q01DX009 (ip), vehicle: Klucel (hydroxypropylcellulose) (HPC)): 95 % of control
T/C (dose: 5.0 mg/kg/injection, schedule: Q04DX003 (ip), vehicle: Klucel (hydroxypropylcellulose) (HPC)): 100 % of control
T/C (dose: 6.6 mg/kg/injection, schedule: Q04DX003 (ip), vehicle: Klucel (hydroxypropylcellulose) (HPC)): 91 % of control
T/C (dose: 10.0 mg/kg/injection, schedule: Q01DX009 (ip), vehicle: Klucel (hydroxypropylcellulose) (HPC)): 113 % of control
T/C (dose: 10.0 mg/kg/injection, schedule: Q04DX003 (ip), vehicle: Klucel (hydroxypropylcellulose) (HPC)): 95 % of control
T/C (dose: 15.0 mg/kg/injection, schedule: Q04DX003 (ip), vehicle: Klucel (hydroxypropylcellulose) (HPC)): 91 % of control
T/C (dose: 20.0 mg/kg/injection, schedule: Q01DX009 (ip), vehicle: Klucel (hydroxypropylcellulose) (HPC)): 113 % of control

NC(Cc1ccccc1)C(=O)NCC(=O)O (stereo unspecified) (H-[ξF]-Gly-OH)
T/C [1]: 100 % of control
T/C (dose: 200.0 mg/kg/injection, schedule: Q04DX003 (ip), vehicle: saline): 100 % of control
T/C [2]: 100 % of control

C(=C/c1ccnc2ccccc12)/c1cccs1
T/C [3]: 102 % of control
T/C [4]: 110 % of control
T/C [5]: 111 % of control
T/C [6]: 119 % of control

CCOC(=O)N(CC)c1ccccc1
T/C [7]: 90 % of control
T/C [8]: 104 % of control
T/C [9]: 100 % of control

NC(=O)CC(N)c1nn[nH]n1 (stereo unspecified)
T/C [10]: 95 % of control
T/C [11]: 100 % of control
T/C (dose: 400.0 mg/kg/injection, schedule: Q01DX009 (ip), vehicle: saline): 90 % of control

O=C(CNC(=O)Nc1n[nH]c(=S)s1)NNC(=S)Nc1ccccc1
T/C [4]: 115 % of control
T/C [5]: 118 % of control
T/C [6]: 109 % of control

Cc1cc(NC(=O)Nc2ccc(C3=NCCN3)cc2)ccc1NC(=O)Nc1ccc(C2=NCCN2)cc1
T/C [5]: 122 % of control
T/C (dose: 400.0 mg/kg/injection, schedule: Q01DX009 (ip), vehicle: saline with Tween-80): 159 % of control

CC=C=C(C)CN
T/C (dose: 50.0 mg/kg/injection, schedule: Q01DX009 (ip), vehicle: saline): 96 % of control
T/C [10]: 96 % of control
T/C [11]: 92 % of control

CN(C)c1ccc(/C=C\c2ccnc3ccccc23)cc1Br
T/C (dose: 12.5 mg/kg/injection, schedule: Q01DX009 (ip), vehicle: saline with Tween-80): 107 % of control
T/C [3]: 94 % of control
T/C [4]: 99 % of control
T/C [5]: 89 % of control

O=NN(CCCl)C(=O)Nc1c[nH]c2ccccc12
T/C (dose: 50.0 mg/kg/injection, schedule: Q01DX009 (ip), vehicle: Klucel (hydroxypropylcellulose) (HPC)): 92 % of control
T/C (dose: 100.0 mg/kg/injection, schedule: Q01DX009 (ip), vehicle: Klucel (hydroxypropylcellulose) (HPC)): 107 % of control
T/C (dose: 200.0 mg/kg/injection, schedule: Q01DX009 (ip), vehicle: Klucel (hydroxypropylcellulose) (HPC)): 108 % of control
T/C (dose: 400.0 mg/kg/injection, schedule: Q01DX009 (ip), vehicle: Klucel (hydroxypropylcellulose) (HPC)): 117 % of control

CCC(C)C(NC(=O)OCc1ccccc1)C(=O)NC(C(=O)NC(CCC(=O)OC(C)(C)C)C(=O)OC)C(C)C (stereo not drawn) (Cbz-Ile-Val-Glu(OtBu)-OMe; configuration not given here)
T/C (dose: 100.0 mg/kg/injection, schedule: Q04DX003 (ip), vehicle: saline sonified): 90 % of control
T/C (dose: 200.0 mg/kg/injection, schedule: Q04DX003 (ip), vehicle: saline sonified): 90 % of control
T/C (dose: 400.0 mg/kg/injection, schedule: Q04DX003 (ip), vehicle: saline sonified): 95 % of control

CCCCNC(C)(C)C(SSSC(c1ccc(C(F)(F)F)cc1)C(C)(C)NCCCC)c1ccc(C(F)(F)F)cc1 (stereo unspecified)
T/C [1]: 120 % of control
T/C [2]: 120 % of control

CCCCCCCCCCCC[N+]1(CCCCCCCCCCCC)CCCC(C)C1 (stereo unspecified)
T/C (dose: 0.37 mg/kg/injection, schedule: Q01DX009 (ip), vehicle: Klucel (hydroxypropylcellulose) (HPC)): 108 % of control

CSc1ccccc1C(=O)NNS(=O)(=O)c1ccc(C)cc1
T/C [7]: 91 % of control
T/C [8]: 104 % of control
T/C [9]: 100 % of control

CC(C)=CCC1=C(OC2OC(CO)C(O)C(O)C2O)C(=O)c2ccccc2C1=O (stereo unspecified)
T/C (dose: 1.56 mg/kg/injection, schedule: Q01DX009 (ip), vehicle: saline with Tween-80): 123 % of control
T/C (dose: 3.13 mg/kg/injection, schedule: Q01DX009 (ip), vehicle: saline with Tween-80): 160 % of control

COC1=CCC23C(=O)C=CC(=O)C2(C1)C(=O)c1ccccc1C3=O (stereo unspecified)
T/C (dose: 3.12 mg/kg/injection, schedule: Q04DX003 (ip), vehicle: saline with Tween-80): 105 % of control
T/C (dose: 6.25 mg/kg/injection, schedule: Q04DX003 (ip), vehicle: saline with Tween-80): 113 % of control
T/C [12]: 113 % of control

S=C1SC(c2ccccc2)(c2ccccc2)c2ccccc21
T/C (dose: 100.0 mg/kg/injection, schedule: Q01DX001 (ip), vehicle: saline with Tween-80): 100 % of control
T/C (dose: 200.0 mg/kg/injection, schedule: Q01DX001 (ip), vehicle: saline with Tween-80): 94 % of control
T/C (dose: 400.0 mg/kg/injection, schedule: Q01DX001 (ip), vehicle: saline with Tween-80): 93 % of control

Nc1ncnc2c1ncn2C1CC(O)C(CO)O1 (stereo unspecified)
T/C (dose: 440.0 mg/kg/injection, schedule: Q01DX009 (ip), vehicle: saline with Tween-80): 93 % of control
T/C (dose: 660.0 mg/kg/injection, schedule: Q01DX009 (ip), vehicle: saline with Tween-80): 93 % of control
T/C (dose: 1000.0 mg/kg/injection, schedule: Q01DX009 (ip), vehicle: saline with Tween-80): 105 % of control

CCCCC(CCC)(CCN)CCCC
T/C (dose: 1.0 mg/kg/injection, schedule: Q01DX009 (ip), vehicle: Klucel (hydroxypropylcellulose) (HPC)): 100 % of control
T/C (dose: 2.0 mg/kg/injection, schedule: Q01DX009 (ip), vehicle: Klucel (hydroxypropylcellulose) (HPC)): 110 % of control
T/C (dose: 4.0 mg/kg/injection, schedule: Q01DX009 (ip), vehicle: Klucel (hydroxypropylcellulose) (HPC)): 105 % of control
T/C (dose: 8.0 mg/kg/injection, schedule: Q01DX009 (ip), vehicle: Klucel (hydroxypropylcellulose) (HPC)): 115 % of control

COc1ccc(OC)c(/C=C/C(=O)c2ccc(Cl)cc2)c1
T/C [7]: 104 % of control
T/C [8]: 95 % of control
T/C [9]: 104 % of control

Cc1ccc(/C(C#N)=C2C=C(Br)/C(=N\O)C=C/2Cl)cc1
T/C (dose: 28.12 mg/kg/injection, schedule: Q04DX003 (ip), vehicle: Klucel (hydroxypropylcellulose) (HPC)): 100 % of control
T/C (dose: 56.25 mg/kg/injection, schedule: Q01DX009 (ip), vehicle: Klucel (hydroxypropylcellulose) (HPC)): 115 % of control
T/C (dose: 56.25 mg/kg/injection, schedule: Q04DX003 (ip), vehicle: Klucel (hydroxypropylcellulose) (HPC)): 100 % of control
T/C (dose: 100.0 mg/kg/injection, schedule: Q01DX001 (ip), vehicle: Klucel (hydroxypropylcellulose) (HPC)): 90 % of control
T/C (dose: 112.5 mg/kg/injection, schedule: Q01DX009 (ip), vehicle: Klucel (hydroxypropylcellulose) (HPC)): 110 % of control
T/C (dose: 112.5 mg/kg/injection, schedule: Q04DX003 (ip), vehicle: Klucel (hydroxypropylcellulose) (HPC)): 100 % of control
T/C (dose: 150.0 mg/kg/injection, schedule: Q01DX009 (ip), vehicle: Klucel (hydroxypropylcellulose) (HPC)): 100 % of control
T/C (dose: 170.0 mg/kg/injection, schedule: Q04DX003 (ip), vehicle: Klucel (hydroxypropylcellulose) (HPC)): 105 % of control
T/C (dose: 200.0 mg/kg/injection, schedule: Q01DX001 (ip), vehicle: Klucel (hydroxypropylcellulose) (HPC)): 104 % of control
T/C (dose: 225.0 mg/kg/injection, schedule: Q01DX009 (ip), vehicle: Klucel (hydroxypropylcellulose) (HPC)): 105 % of control
T/C (dose: 255.0 mg/kg/injection, schedule: Q04DX003 (ip), vehicle: Klucel (hydroxypropylcellulose) (HPC)): 110 % of control
T/C (dose: 335.0 mg/kg/injection, schedule: Q01DX009 (ip), vehicle: Klucel (hydroxypropylcellulose) (HPC)): 100 % of control
T/C (dose: 380.0 mg/kg/injection, schedule: Q04DX003 (ip), vehicle: Klucel (hydroxypropylcellulose) (HPC)): 100 % of control

CN(C)N=C(Cc1ccccc1)Cc1ccccc1
T/C [12]: 108 % of control
T/C (dose: 25.0 mg/kg/injection, schedule: Q04DX003 (ip), vehicle: saline with Tween-80): 108 % of control
T/C (dose: 50.0 mg/kg/injection, schedule: Q04DX003 (ip), vehicle: saline with Tween-80): 104 % of control
